According to patent publication US20250230193A1, “CYCLIC COMPOUND HAVING SELECTIVE KRAS INHIBITORY EFFECT ON HRAS AND NRAS” (CHUGAI SEIYAKU KABUSHIKI KAISHA, priority 2022, published 2025):

Columns and labels:
[1] = target: GDP-bound HRAS wild-type protein (Homo sapiens, UniProt P01112); experiment: Binding to HRAS by surface plasmon resonance (SPR), Single Cycle Kinetics; settings: SPR; for HRAS/KRAS (ratio of KD value for HRAS to KD value for KRAS): GDP-bound HRAS wild-type vs GDP-bound KRAS wild-type
[2] = target: GDP-bound NRAS wild-type protein (Homo sapiens, UniProt P01111); experiment: Binding to NRAS by surface plasmon resonance (SPR), Single Cycle Kinetics; settings: SPR; for NRAS/KRAS (ratio of KD value for NRAS to KD value for KRAS): GDP-bound NRAS wild-type vs GDP-bound KRAS wild-type
GDP-bound NRAS wild-type protein, sequence (P01111 whole entry): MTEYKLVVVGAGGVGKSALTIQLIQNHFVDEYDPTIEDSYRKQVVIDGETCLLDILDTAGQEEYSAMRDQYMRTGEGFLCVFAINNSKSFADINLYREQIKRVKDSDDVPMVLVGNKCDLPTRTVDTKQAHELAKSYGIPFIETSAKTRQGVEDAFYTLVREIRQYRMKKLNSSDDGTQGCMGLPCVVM

GDP-bound HRAS wild-type protein, sequence (P01112 whole entry): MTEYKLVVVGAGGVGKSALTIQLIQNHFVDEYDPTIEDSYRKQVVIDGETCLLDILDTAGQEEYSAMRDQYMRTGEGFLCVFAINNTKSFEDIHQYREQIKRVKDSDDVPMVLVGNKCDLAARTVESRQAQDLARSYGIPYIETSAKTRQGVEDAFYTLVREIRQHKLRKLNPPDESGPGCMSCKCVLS

SMILES	HRAS/KRAS (ratio of KD value for GDP-bound HRAS wild-type protein to KD value for KRAS) ([1]; KD ratio class)	NRAS/KRAS (ratio of KD value for GDP-bound NRAS wild-type protein to KD value for KRAS) ([2]; KD ratio class)	HRAS/KRAS (ratio of KD value for HRAS to KD value for KRAS) [1]	NRAS/KRAS (ratio of KD value for NRAS to KD value for KRAS) [2]
CCO[C@@H]1C[C@H]2C(=O)NC3(CCCC3)C(=O)N(C)[C@@H](C3CCCC3)C(=O)N(C)[C@H](C(=O)N(C)CC)CC(=O)N(C)[C@@H](CC(C)C)C(=O)N[C@@H]([C@@H](C)CC)C(=O)N(C)CC(=O)N(C)[C@H]3C/C=C\CCN(C3=O)[C@@H](Cc3ccc(C(F)(F)F)cc3)C(=O)N(C)CC(=O)N[C@@H](CCc3cc(F)c(C(F)(F)F)c(F)c3)C(=O)N2C1 [PP1574, (2S,8S,12R,14S,20S,23S,27S,30S,36S,38Z)-20-cyclopentyl-8-[2-[3,5-difluoro-4-(trifluoromethyl)phenyl]ethyl]-12-ethoxy-N-ethyl-27-isobutyl-N,4,19,22,26,32,35-heptamethyl-30-[(1S)-1-methylpropyl]-3,6,9,15,18,21,25,28,31,34,42-undecaoxo-2-[[4-(trifluoromethyl)phenyl]methyl]spiro[1,4,7,10,16,19,22,26,29,32,35-undecazatricyclo[34.5.1.0^10,14]dotetracont-38-ene-17,1′-cyclopentane]-23-carboxamide]	A (a compound having 10 or more and less than 20 is denoted as A)	A (a compound having 10 or more and less than 20 is denoted as A)	–	–
CCO[C@@H]1C[C@H]2C(=O)NC3(CC(F)(F)C3)C(=O)N(C)[C@@H](C(CC)CC)C(=O)N3CCC[C@@H]3CC(=O)N(C)[C@@H](CC)C(=O)N[C@@H]([C@@H](C)CC)C(=O)N(C)CC(=O)N(C)[C@H]3C/C=C\CCN(C3=O)[C@@H](Cc3ccc(C(F)(F)F)cc3)C(=O)N(C)CC(=O)N[C@@H](CCc3cc(F)c(C(F)(F)F)c(F)c3)C(=O)N2C1 [PP1608]	–	–	A (a compound having 10 or more and less than 20 is denoted as A)	A (a compound having 10 or more and less than 20 is denoted as A)
CCO[C@@H]1C[C@H]2C(=O)NC3(CC(F)(F)C3)C(=O)N(C)[C@@H](C3CCCC3)C(=O)N3CCC[C@@H]3CC(=O)N(C)[C@@H](CC)C(=O)N[C@@H]([C@@H](C)CC)C(=O)N(C)CC(=O)N(C)[C@H]3C/C=C\CCN(C3=O)[C@@H](Cc3ccc(C(F)(F)F)cc3)C(=O)N(C)CC(=O)N[C@@H](CCc3cc(F)c(C(F)(F)F)c(F)c3)C(=O)N2C1 [PP1609]	–	–	A (a compound having 10 or more and less than 20 is denoted as A)	A (a compound having 10 or more and less than 20 is denoted as A)
CCO[C@@H]1C[C@H]2C(=O)NC3(CC(C)(C)C3)C(=O)N(C)[C@@H](C(CC)CC)C(=O)N3CCC[C@@H]3CC(=O)N(C)[C@@H](CC3CC3)C(=O)N[C@@H]([C@@H](C)CC)C(=O)N(C)CC(=O)N(C)[C@H]3C/C=C\CCN(C3=O)[C@@H](Cc3ccc(C(F)(F)F)cc3)C(=O)N(C)CC(=O)N[C@@H](CCc3cc(F)c(C(F)(F)F)c(F)c3)C(=O)N2C1 [PP1610]	–	–	A (a compound having 10 or more and less than 20 is denoted as A)	A (a compound having 10 or more and less than 20 is denoted as A)
CCO[C@@H]1C[C@H]2C(=O)NC3(CC(C)(C)C3)C(=O)N(C)[C@@H](C3CCCC3)C(=O)N3CCC[C@@H]3CC(=O)N(C)[C@@H](CC3CC3)C(=O)N[C@@H]([C@@H](C)CC)C(=O)N(C)CC(=O)N(C)[C@H]3C/C=C\CCN(C3=O)[C@@H](Cc3ccc(C(F)(F)F)cc3)C(=O)N(C)CC(=O)N[C@@H](CCc3cc(F)c(C(F)(F)F)c(F)c3)C(=O)N2C1 [PP1611]	–	–	B (a compound having 3 or more and less than 10 is denoted as B)	B (a compound having 3 or more and less than 10 is denoted as B)
CCO[C@@H]1C[C@H]2C(=O)NC3(CCC3)C(=O)N(C)[C@@H](C(CC)CC)C(=O)N3CCC[C@@H]3CC(=O)N(C)[C@@H](CC3CC3)C(=O)N[C@@H]([C@@H](C)CC)C(=O)N(C)CC(=O)N(C)[C@H]3C/C=C\CCN(C3=O)[C@@H](Cc3ccc(C(F)(F)F)cc3)C(=O)N(C)CC(=O)N[C@@H](CCc3cc(F)c(C(F)(F)F)c(F)c3)C(=O)N2C1 [PP1612]	–	–	B (a compound having 3 or more and less than 10 is denoted as B)	B (a compound having 3 or more and less than 10 is denoted as B)
CCO[C@@H]1C[C@H]2C(=O)NC3(CCC3)C(=O)N(C)[C@@H](C3CCCC3)C(=O)N3CCC[C@@H]3CC(=O)N(C)[C@@H](CC3CC3)C(=O)N[C@@H]([C@@H](C)CC)C(=O)N(C)CC(=O)N(C)[C@H]3C/C=C\CCN(C3=O)[C@@H](Cc3ccc(C(F)(F)F)cc3)C(=O)N(C)CC(=O)N[C@@H](CCc3cc(F)c(C(F)(F)F)c(F)c3)C(=O)N2C1 [PP1613]	–	–	B (a compound having 3 or more and less than 10 is denoted as B)	B (a compound having 3 or more and less than 10 is denoted as B)
CCO[C@@H]1C[C@H]2C(=O)NC3(CC(F)(F)C3)C(=O)N(C)[C@@H](C(CC)CC)C(=O)N3CCC[C@@H]3CC(=O)N(C)[C@@H](CC3CC3)C(=O)N[C@@H]([C@@H](C)CC)C(=O)N(C)CC(=O)N(C)[C@H]3C/C=C\CCN(C3=O)[C@@H](Cc3ccc(C(F)(F)F)cc3)C(=O)N(C)CC(=O)N[C@@H](CCc3cc(F)c(C(F)(F)F)c(F)c3)C(=O)N2C1 [PP1614]	–	–	A (a compound having 10 or more and less than 20 is denoted as A)	A (a compound having 10 or more and less than 20 is denoted as A)
CCO[C@@H]1C[C@H]2C(=O)NC3(CC(F)(F)C3)C(=O)N(C)[C@@H](C3CCCC3)C(=O)N3CCC[C@@H]3CC(=O)N(C)[C@@H](CC3CC3)C(=O)N[C@@H]([C@@H](C)CC)C(=O)N(C)CC(=O)N(C)[C@H]3C/C=C\CCN(C3=O)[C@@H](Cc3ccc(C(F)(F)F)cc3)C(=O)N(C)CC(=O)N[C@@H](CCc3cc(F)c(C(F)(F)F)c(F)c3)C(=O)N2C1 [PP1615]	–	–	B (a compound having 3 or more and less than 10 is denoted as B)	B (a compound having 3 or more and less than 10 is denoted as B)
CCO[C@@H]1C[C@H]2C(=O)NC3(CCC3)C(=O)N(C)[C@@H](C3CCCC3)C(=O)N3CCC[C@@H]3CC(=O)N(C)[C@@H](CC3CC3)C(=O)N[C@@H]([C@@H](C)CC)C(=O)N(C)CC(=O)N(C)[C@H]3C/C=C\CCN(C3=O)[C@@H](Cc3ccc(C(F)(F)F)cc3)C(=O)N(C)CC(=O)N[C@@H](CCc3ccc(C(F)(F)F)c(OC)c3)C(=O)N2C1 [PP1616]	–	–	B (a compound having 3 or more and less than 10 is denoted as B)	B (a compound having 3 or more and less than 10 is denoted as B)
CCO[C@@H]1C[C@H]2C(=O)NC3(CC(C)(C)C3)C(=O)N(C)[C@@H](C3CCCC3)C(=O)N3CCC[C@@H]3CC(=O)N(C)[C@@H](CC)C(=O)N[C@@H]([C@@H](C)CC)C(=O)N(C)CC(=O)N(C)[C@H]3C/C=C\CCN(C3=O)[C@@H](CC3CCCCC3)C(=O)N(C)CC(=O)N[C@@H](CCc3cc(F)c(C(F)(F)F)c(F)c3)C(=O)N2C1 [PP1620]	–	–	B (a compound having 3 or more and less than 10 is denoted as B)	B (a compound having 3 or more and less than 10 is denoted as B)
